Columns and labels:
[1] = 101.33 kPa, Liquid; for viscosity: Concentric cylinders viscometry; for mass density: Vibrating tube method
[2] = refractive index (Na D-line) (dimensionless); details: 101.33 kPa, Liquid, Standard Abbe refractometry

Cc1ccccc1C [1,2-dimethylbenzene]
Details | mass density, [1] [kg/m3] | refractive index, [2] | viscosity, [1] [mPa·s]
288.15 K | 883.91 | 1.50706 | 0.869
293.15 K | 879.72 | 1.5044 | 0.8175
298.15 K | 875.51 | 1.50173 | 0.7661
303.15 K | 871.3 | 1.49906 | 0.722
308.15 K | 867.07 | 1.49644 | 0.6809
313.15 K | 862.83 | 1.49383 | 0.6437
318.15 K | 858.57 | 1.49124 | 0.608
323.15 K | 854.3 | 1.48869 | 0.5757
328.15 K | 850.01 | 1.48604 | 0.5458
333.15 K | 845.71 | 1.48345 | 0.5221

Cc1cccc(C)c1 [1,3-dimethylbenzene]
Details | mass density, [1] [kg/m3] | refractive index, [2] | viscosity, [1] [mPa·s]
288.15 K | 868.56 | 1.49868 | 0.6601
293.15 K | 864.27 | 1.49604 | 0.6322
298.15 K | 859.98 | 1.49339 | 0.5969
303.15 K | 855.68 | 1.49074 | 0.5674
308.15 K | 851.36 | 1.4881 | 0.5396
313.15 K | 847.03 | 1.48545 | 0.5112
318.15 K | 842.69 | 1.4828 | 0.4888
323.15 K | 838.33 | 1.48017 | 0.4657
328.15 K | 833.95 | 1.47757 | 0.4439
333.15 K | 829.56 | 1.47489 | 0.4273

Cc1ccc(C)cc1 [1,4-dimethylbenzene]
Details | mass density, [1] [kg/m3] | refractive index, [2] | viscosity, [1] [mPa·s]
288.15 K | 865.31 | 1.4977 | 0.6862
293.15 K | 860.97 | 1.49493 | 0.6515
298.15 K | 856.63 | 1.49221 | 0.6168
303.15 K | 852.27 | 1.48939 | 0.5848
308.15 K | 847.91 | 1.48658 | 0.5548
313.15 K | 843.53 | 1.48391 | 0.5247
318.15 K | 839.14 | 1.48126 | 0.5001
323.15 K | 834.74 | 1.47853 | 0.4753
328.15 K | 830.32 | 1.47608 | 0.4521
333.15 K | 825.88 | 1.47328 | 0.4342

Cc1ccccc1 [toluene]
Details | mass density, [1] [kg/m3] | refractive index, [2] | viscosity, [1] [mPa·s]
288.15 K | 871.5 | 1.49921 | 0.6284
293.15 K | 866.84 | 1.49631 | 0.5926
298.15 K | 862.18 | 1.49338 | 0.5698
303.15 K | 857.51 | 1.49042 | 0.541
308.15 K | 852.83 | 1.48751 | 0.514
313.15 K | 848.15 | 1.48461 | 0.4854
318.15 K | 843.44 | 1.48171 | 0.4646
323.15 K | 838.73 | 1.47889 | 0.4421
328.15 K | 834 | 1.47596 | 0.4209
333.15 K | 829.25 | 1.47305 | 0.4035
